The source of these data is ChEMBL document CHEMBL1255288, “Linezolid resistance in Staphylococcus aureus: gene dosage effect, stability, fitness costs, and cross-resistances” (2008).

What is called MIC is the lowest concentration that inhibits growth of the organism.

The subject of experiment [1] is Staphylococcus aureus. Description: Antibacterial activity against Staphylococcus aureus T2019 with G2576T mutation in 23S rRNA genes by disc diffusion method. Format: functional, organism-based. In general terms: In agar diffusion tests the substance spreads into inoculated agar from a disc or well.
The test system of experiment [2] is Staphylococcus aureus. Description: Antibacterial activity against Staphylococcus aureus T991 by disc diffusion method. Format: functional, organism-based.
Experiment [3] relates to Staphylococcus aureus. Description: Antibacterial activity against Staphylococcus aureus T2019 with G2576T mutation in 23S rRNA genes by Etest method. Format: functional.
The subject of experiment [4] is Staphylococcus aureus. In words: Antibacterial activity against Staphylococcus aureus T991 by Etest method. Format: functional.
Experiment [5] relates to Staphylococcus aureus. Description: Antibacterial activity against Staphylococcus aureus T2019/50 expressing 23S rrn1 G2576T, rrn3 G2576T, rrn4 G2576T and rrn5 G2576T mutants by Etest method. Format: functional.
The subject of experiment [6] is Staphylococcus aureus. Description: Antibacterial activity against Staphylococcus aureus T1910 expressing 23S rrn2 G2576T, rrn3 G2576T, rrn4 G2576T and rrn5 G2576T mutants by Etest method. The experiment is classed as functional.
The test system of experiment [7] is Staphylococcus aureus. In words: Antibacterial activity against Staphylococcus aureus T1900 expressing 23S rrn3 G2576T, rrn4 G2576T and rrn5 G2576T mutants by Etest method. Format: functional.
In experiment [8] the test system is Staphylococcus aureus. Description: Antibacterial activity against Staphylococcus aureus T2019 expressing 23S rrn1 G2576T, rrn2 G2576T, rrn3 G2576T, rrn4 G2576T and rrn5 G2576T mutants by Etest method. Format: functional.
Experiment [9] concerns Staphylococcus aureus. In words: Antibacterial activity against Staphylococcus aureus T1888 expressing 23S rrn 3 G2576T and rrn 5 G2576T mutants by Etest method. Format: functional.

≈ marks a conversion by molar mass, not a printed value. Calls of active or inactive are those of the source. No cut-off for these calls is given here. Where only a bound is given, the exact number is not on record here.

In the case of `O=C(N[C@H](CO)[C@H](O)c1ccc([N+](=O)[O-])cc1)C(Cl)Cl`, the MIC result in experiment [1] is “inactive”. Also, in experiment [2], the outcome was Active.
As to `CCC[C@@H]1C[C@@H](C(=O)N[C@@H]([C@H]2O[C@H](SC)[C@H](O)[C@@H](O)[C@H]2O)[C@H](C)Cl)N(C)C1` [CLINDAMYCIN], the MIC in experiment [3] and in experiment [4] was over 256 µg/mL each time.
As for `C[C@H]1c2cccc(O)c2C(=O)C2=C(O)[C@]3(O)C(=O)C(C(N)=O)=C(O)[C@@H](N(C)C)[C@@H]3[C@@H](O)[C@@H]21.O` [DOXYCYCLINE], the MIC in experiment [3] and in experiment [4] was 6 µg/mL in each case.
Regarding `CC[C@H]1OC(=O)[C@H](C)[C@@H](O[C@H]2C[C@@](C)(OC)[C@@H](O)[C@H](C)O2)[C@H](C)[C@@H](O[C@@H]2O[C@H](C)C[C@H](N(C)C)[C@H]2O)[C@](C)(O)C[C@@H](C)C(=O)[C@H](C)[C@@H](O)[C@]1(C)O` [ERYTHROMYCIN], the minimal inhibitory concentration (MIC) in [3] and in [4] was over 256 µg/mL throughout.
As for `CC(=O)O[C@H]1C[C@@]2(C)[C@@H](C[C@@H](O)[C@H]3[C@@]4(C)CC[C@@H](O)[C@@H](C)[C@@H]4CC[C@@]32C)/C1=C(\CCC=C(C)C)C(=O)O` [FUSIDIC ACID], the figures for the MIC in [3] and in experiment [4] were 0.5 µg/mL (≈ 0.968 µM) and 0.19 µg/mL (≈ 0.368 µM), respectively.
Regarding `CC(=O)NC[C@H]1CN(c2ccc(N3CCOCC3)c(F)c2)C(=O)O1` [LINEZOLID], the minimal inhibitory concentration (MIC) in [3] came out at 128 µg/mL (≈ 379 µM); in experiment [4], 1 µg/mL (≈ 2.96 µM); in experiment [5] it was 64 µg/mL (≈ 190 µM); in experiment [6], 64 µg/mL (≈ 190 µM); in experiment [7], 32 µg/mL (≈ 94.9 µM); in [8], 128 µg/mL (≈ 379 µM). Besides, inhibition of growth in experiment [9] (MIC) required 8 µg/mL (≈ 23.7 µM).
`CN(C)c1cc(NC(=O)CNC(C)(C)C)c(O)c2c1C[C@H]1C[C@H]3[C@H](N(C)C)C(O)=C(C(N)=O)C(=O)[C@@]3(O)C(O)=C1C2=O` [TIGECYCLINE]: the MIC in [3] came out at 0.75 µg/mL (≈ 1.28 µM); in [4], 1 µg/mL (≈ 1.71 µM).
The matching figures for GENTAMICIN: 256 µg/mL and 256 µg/mL.
